Assay results as given in ChEMBL document CHEMBL1932974, “Optimization of a novel kinase inhibitor scaffold for the dual inhibition of JAK2 and FAK kinases” (Bioorg Med Chem Lett, 2012).

Tested on: not listed separately
Experiment: Metabolic stability in rat liver microsomes
Type: ADME, Microsome
Settings: read-out: Stability

Compound	half-life
CN(c1ccccc1-c1ccc2cnc(Nc3ccc(C4CCN(CC(N)=O)CC4)cc3)nn12)S(C)(=O)=O	6 min
CN(c1ccccc1-c1cc(Cl)c2cnc(Nc3ccc(C4CCN(CC(N)=O)CC4)cc3)nn12)S(C)(=O)=O	21 min

Tested on: not listed separately
Experiment: Plasma protein binding in mouse
Type: ADME, cell-free
Settings: read-out: PPB (converted)

Compound	fraction unbound
CN(c1ccccc1-c1cc(Cl)c2cnc(Nc3ccc(C4CCN(CC(N)=O)CC4)cc3)nn12)S(C)(=O)=O	0.006

Tested on: not listed separately
Experiment: Oral bioavailability in Sprague-Dawley rat at 5 mg/kg
Type: ADME, organism-based
Settings: in vivo

Compound	bioavailability
CN(c1ccccc1-c1cc(Cl)c2cnc(Nc3ccc(C4CCN(CC(N)=O)CC4)cc3)nn12)S(C)(=O)=O	12%

Target: T1, Tyrosine-protein kinase JAK2 (Homo sapiens, UniProt O60674)
T1 sequence (O60674 whole entry): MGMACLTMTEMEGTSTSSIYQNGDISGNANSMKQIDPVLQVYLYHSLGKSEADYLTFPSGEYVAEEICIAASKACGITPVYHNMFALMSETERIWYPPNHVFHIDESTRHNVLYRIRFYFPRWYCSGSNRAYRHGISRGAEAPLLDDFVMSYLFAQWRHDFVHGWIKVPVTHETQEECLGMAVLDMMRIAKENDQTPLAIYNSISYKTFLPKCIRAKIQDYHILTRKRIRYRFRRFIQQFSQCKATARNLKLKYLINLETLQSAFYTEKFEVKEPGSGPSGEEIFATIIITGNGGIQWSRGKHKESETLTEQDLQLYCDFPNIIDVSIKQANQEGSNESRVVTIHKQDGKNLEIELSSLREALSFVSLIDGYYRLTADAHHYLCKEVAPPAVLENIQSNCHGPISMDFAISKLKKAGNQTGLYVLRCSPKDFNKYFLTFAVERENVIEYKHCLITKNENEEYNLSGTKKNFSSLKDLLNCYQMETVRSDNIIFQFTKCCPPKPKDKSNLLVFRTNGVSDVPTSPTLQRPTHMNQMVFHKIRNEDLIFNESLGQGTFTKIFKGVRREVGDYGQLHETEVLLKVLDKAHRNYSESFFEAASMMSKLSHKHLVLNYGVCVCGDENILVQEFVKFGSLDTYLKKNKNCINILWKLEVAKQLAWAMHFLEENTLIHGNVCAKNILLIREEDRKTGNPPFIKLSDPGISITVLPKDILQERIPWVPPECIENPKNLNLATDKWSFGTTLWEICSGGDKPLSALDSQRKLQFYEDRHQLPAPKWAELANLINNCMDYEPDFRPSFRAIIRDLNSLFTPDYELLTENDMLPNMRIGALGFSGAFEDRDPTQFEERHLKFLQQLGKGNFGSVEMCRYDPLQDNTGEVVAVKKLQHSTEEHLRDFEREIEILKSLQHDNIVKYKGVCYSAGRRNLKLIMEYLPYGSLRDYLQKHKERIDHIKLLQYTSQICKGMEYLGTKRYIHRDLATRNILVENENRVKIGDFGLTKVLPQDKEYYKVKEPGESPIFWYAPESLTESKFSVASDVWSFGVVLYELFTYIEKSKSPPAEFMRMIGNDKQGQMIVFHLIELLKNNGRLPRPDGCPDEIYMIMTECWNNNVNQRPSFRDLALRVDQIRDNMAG
Experiment: Inhibition of human recombinant JAK2 expressed in baculovirus expression system after 20 mins by time resolved fluorescence assay
Settings: not given

Compound	IC50
COc1cc(Nc2ncc3ccc(-c4ccccc4)n3n2)cc(OC)c1OC	0.2 nM
COc1cc(C2CCN(CC(N)=O)CC2)ccc1Nc1ncc2ccc(-c3ccccc3OC)n2n1	250 nM
COc1ccccc1-c1ccc2cnc(Nc3ccc(C4CCN(CC(N)=O)CC4)cc3)nn12	0.6 nM
CN(c1ccccc1-c1ccc2cnc(Nc3ccc(C4CCN(CC(N)=O)CC4)cc3)nn12)S(C)(=O)=O	2 nM
CC(C)(C)NS(=O)(=O)c1cccc(-c2ccc3cnc(Nc4ccc(C5CCN(CC(N)=O)CC5)cc4)nn23)c1	0.64 nM
COc1ccc(-c2ccc3cnc(Nc4ccc(C5CCN(CC(N)=O)CC5)cc4)nn23)cn1	0.77 nM
CS(=O)(=O)Nc1cccc(-c2ccc3cnc(Nc4ccc(C5CCN(CC(N)=O)CC5)cc4)nn23)c1	0.22 nM
CN(c1cccc(-c2ccc3cnc(Nc4ccc(C5CCN(CC(N)=O)CC5)cc4)nn23)c1)S(C)(=O)=O	0.09 nM
NC(=O)CN1CCC(c2ccc(Nc3ncc4ccc(-c5cccc(CO)c5)n4n3)cc2)CC1	0.27 nM
CN(c1ccccc1-c1cc(Cl)c2cnc(Nc3ccc(C4CCN(CC(N)=O)CC4)cc3)nn12)S(C)(=O)=O	2.5 nM

Tested on: not listed separately
Experiment: Metabolic stability in human liver microsomes
Type: ADME, Microsome
Settings: read-out: Stability

Compound	half-life
CN(c1ccccc1-c1ccc2cnc(Nc3ccc(C4CCN(CC(N)=O)CC4)cc3)nn12)S(C)(=O)=O	< 5 min
CN(c1ccccc1-c1cc(Cl)c2cnc(Nc3ccc(C4CCN(CC(N)=O)CC4)cc3)nn12)S(C)(=O)=O	11 min

Target: Insulin receptor (Homo sapiens, UniProt P06213)
Sequence (P06213 28-758 limits assumed): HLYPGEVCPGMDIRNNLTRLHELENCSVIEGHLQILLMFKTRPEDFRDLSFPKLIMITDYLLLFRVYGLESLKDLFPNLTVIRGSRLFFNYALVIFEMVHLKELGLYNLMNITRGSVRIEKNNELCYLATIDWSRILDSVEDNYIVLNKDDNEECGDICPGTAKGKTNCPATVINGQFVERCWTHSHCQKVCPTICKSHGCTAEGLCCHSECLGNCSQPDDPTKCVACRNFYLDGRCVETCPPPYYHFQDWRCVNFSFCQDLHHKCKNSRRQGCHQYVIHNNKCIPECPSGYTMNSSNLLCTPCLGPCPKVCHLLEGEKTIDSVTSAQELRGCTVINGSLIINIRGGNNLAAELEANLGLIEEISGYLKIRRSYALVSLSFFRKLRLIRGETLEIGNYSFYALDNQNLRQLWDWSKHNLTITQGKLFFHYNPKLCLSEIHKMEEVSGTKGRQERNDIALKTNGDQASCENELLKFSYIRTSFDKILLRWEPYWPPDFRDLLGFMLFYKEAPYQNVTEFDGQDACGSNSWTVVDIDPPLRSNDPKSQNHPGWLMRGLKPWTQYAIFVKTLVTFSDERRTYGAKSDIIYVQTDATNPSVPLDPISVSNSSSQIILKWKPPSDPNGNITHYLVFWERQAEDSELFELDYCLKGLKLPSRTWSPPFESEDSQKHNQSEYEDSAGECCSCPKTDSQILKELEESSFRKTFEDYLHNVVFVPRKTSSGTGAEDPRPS
Sequence (P06213 763-1382 limits assumed): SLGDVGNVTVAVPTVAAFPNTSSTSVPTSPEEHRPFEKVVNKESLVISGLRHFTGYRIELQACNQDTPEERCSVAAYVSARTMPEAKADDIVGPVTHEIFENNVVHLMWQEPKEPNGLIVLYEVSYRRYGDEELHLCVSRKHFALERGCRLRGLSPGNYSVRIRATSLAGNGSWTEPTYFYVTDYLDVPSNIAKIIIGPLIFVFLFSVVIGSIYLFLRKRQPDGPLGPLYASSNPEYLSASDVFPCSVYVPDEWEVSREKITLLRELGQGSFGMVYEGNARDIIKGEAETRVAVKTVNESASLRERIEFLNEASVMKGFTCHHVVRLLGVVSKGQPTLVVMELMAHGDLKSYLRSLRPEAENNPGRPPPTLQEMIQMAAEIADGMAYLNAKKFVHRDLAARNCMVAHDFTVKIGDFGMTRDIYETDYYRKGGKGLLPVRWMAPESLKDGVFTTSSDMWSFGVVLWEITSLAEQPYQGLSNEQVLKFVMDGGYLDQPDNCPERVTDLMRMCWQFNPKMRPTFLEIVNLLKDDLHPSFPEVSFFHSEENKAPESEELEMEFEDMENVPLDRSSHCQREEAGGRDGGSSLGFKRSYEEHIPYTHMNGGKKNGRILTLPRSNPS
Experiment: Inhibition of insulin receptor
Settings: not given

Compound	IC50
CN(c1ccccc1-c1cc(Cl)c2cnc(Nc3ccc(C4CCN(CC(N)=O)CC4)cc3)nn12)S(C)(=O)=O	380 nM

Target: T2, Focal adhesion kinase 1 (Homo sapiens, UniProt Q05397)
T2 sequence (Q05397 whole entry): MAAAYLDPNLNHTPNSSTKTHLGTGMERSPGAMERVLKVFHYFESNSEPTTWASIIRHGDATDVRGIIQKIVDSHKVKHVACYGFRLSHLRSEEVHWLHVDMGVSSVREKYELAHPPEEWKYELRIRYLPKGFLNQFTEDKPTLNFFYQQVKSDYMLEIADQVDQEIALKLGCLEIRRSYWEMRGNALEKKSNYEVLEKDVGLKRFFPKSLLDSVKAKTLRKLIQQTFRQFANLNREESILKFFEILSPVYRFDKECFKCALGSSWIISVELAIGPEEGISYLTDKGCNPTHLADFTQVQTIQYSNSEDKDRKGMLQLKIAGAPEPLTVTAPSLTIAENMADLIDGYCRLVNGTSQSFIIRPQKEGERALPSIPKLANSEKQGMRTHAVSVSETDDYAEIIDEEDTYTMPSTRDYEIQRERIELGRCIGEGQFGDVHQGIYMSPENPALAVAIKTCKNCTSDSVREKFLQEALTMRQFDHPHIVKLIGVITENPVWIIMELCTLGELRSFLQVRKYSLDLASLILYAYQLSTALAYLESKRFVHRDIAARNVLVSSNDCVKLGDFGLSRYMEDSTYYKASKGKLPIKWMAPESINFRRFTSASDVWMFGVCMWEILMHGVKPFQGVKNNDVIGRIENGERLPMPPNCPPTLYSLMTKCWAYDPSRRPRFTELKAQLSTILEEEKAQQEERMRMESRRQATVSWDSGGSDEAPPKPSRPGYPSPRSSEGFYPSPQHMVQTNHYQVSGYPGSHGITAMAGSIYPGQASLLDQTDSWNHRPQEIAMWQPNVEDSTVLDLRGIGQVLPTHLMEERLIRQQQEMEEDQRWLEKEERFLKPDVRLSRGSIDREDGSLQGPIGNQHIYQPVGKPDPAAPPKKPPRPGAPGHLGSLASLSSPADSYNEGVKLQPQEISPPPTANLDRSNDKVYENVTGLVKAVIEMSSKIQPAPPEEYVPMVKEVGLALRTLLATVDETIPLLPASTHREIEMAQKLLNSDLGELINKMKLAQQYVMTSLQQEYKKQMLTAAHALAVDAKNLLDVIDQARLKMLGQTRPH
Experiment: Inhibition of human recombinant FAK expressed in baculovirus expression system after 30 mins by time resolved fluorescence assay
Settings: not given

Compound	IC50
COc1cc(Nc2ncc3ccc(-c4ccccc4)n3n2)cc(OC)c1OC	17 nM
COc1cc(C2CCN(CC(N)=O)CC2)ccc1Nc1ncc2ccc(-c3ccccc3OC)n2n1	21 nM
COc1ccccc1-c1ccc2cnc(Nc3ccc(C4CCN(CC(N)=O)CC4)cc3)nn12	55 nM
CN(c1ccccc1-c1ccc2cnc(Nc3ccc(C4CCN(CC(N)=O)CC4)cc3)nn12)S(C)(=O)=O	14 nM
CC(C)(C)NS(=O)(=O)c1cccc(-c2ccc3cnc(Nc4ccc(C5CCN(CC(N)=O)CC5)cc4)nn23)c1	5.7 nM
COc1ccc(-c2ccc3cnc(Nc4ccc(C5CCN(CC(N)=O)CC5)cc4)nn23)cn1	39 nM
CS(=O)(=O)Nc1cccc(-c2ccc3cnc(Nc4ccc(C5CCN(CC(N)=O)CC5)cc4)nn23)c1	21 nM
CN(c1cccc(-c2ccc3cnc(Nc4ccc(C5CCN(CC(N)=O)CC5)cc4)nn23)c1)S(C)(=O)=O	48 nM
NC(=O)CN1CCC(c2ccc(Nc3ncc4ccc(-c5cccc(CO)c5)n4n3)cc2)CC1	33 nM
CN(c1ccccc1-c1cc(Cl)c2cnc(Nc3ccc(C4CCN(CC(N)=O)CC4)cc3)nn12)S(C)(=O)=O	5 nM

Tested on: Mus musculus
Experiment: Inhibition of JAK2-mediated STAT3 phosphorylation in human CWR22 cells xenografted mouse at 55 mg/kg, po administered as a single dose measured up to 12 hrs
Type: functional
Settings: CWR22, 12 h

Compound	inhibition in vivo at 55 mg/kg
CN(c1ccccc1-c1cc(Cl)c2cnc(Nc3ccc(C4CCN(CC(N)=O)CC4)cc3)nn12)S(C)(=O)=O	> 75%

Tested on: not listed separately
Experiment: Half life in Sprague-Dawley rat at 1 mg/kg, iv
Type: ADME, organism-based
Design: dose 1 mg/kg, route intravenous
Settings: in vivo

Compound	half-life
CN(c1ccccc1-c1cc(Cl)c2cnc(Nc3ccc(C4CCN(CC(N)=O)CC4)cc3)nn12)S(C)(=O)=O	60 min

Tested on: not listed separately
Experiment: AUC (0 to infinity) in Sprague-Dawley rat at 5 mg/kg, po
Type: ADME, organism-based
Design: time infinity, dose 5 mg/kg, route oral
Settings: plasma

Compound	AUC(0-inf)
CN(c1ccccc1-c1cc(Cl)c2cnc(Nc3ccc(C4CCN(CC(N)=O)CC4)cc3)nn12)S(C)(=O)=O	832 ng·h/mL

Tested on: not listed separately
Experiment: AUC (0 to t) in Sprague-Dawley rat at 1 mg/kg, iv
Type: ADME, organism-based
Design: dose 1 mg/kg, route intravenous
Settings: plasma

Compound	AUC(0-t)
CN(c1ccccc1-c1cc(Cl)c2cnc(Nc3ccc(C4CCN(CC(N)=O)CC4)cc3)nn12)S(C)(=O)=O	1320 ng·h/mL

Tested on: not listed separately
Experiment: Volume of distribution in Sprague-Dawley rat at 1 mg/kg, iv
Type: ADME, organism-based
Design: dose 1 mg/kg, route intravenous
Settings: in vivo

Compound	Vd
CN(c1ccccc1-c1cc(Cl)c2cnc(Nc3ccc(C4CCN(CC(N)=O)CC4)cc3)nn12)S(C)(=O)=O	1.3 L/kg

Tested on: Mus musculus
Experiment: Inhibition of FAK phosphorylation in human CWR22 cells xenografted in mouse at 55 mg/kg, po administered as a single dose measured at 2 hrs
Type: functional
Settings: CWR22, 2 h

Compound	inhibition in vivo at 55 mg/kg
CN(c1ccccc1-c1cc(Cl)c2cnc(Nc3ccc(C4CCN(CC(N)=O)CC4)cc3)nn12)S(C)(=O)=O	> 75%

Target: T1, Tyrosine-protein kinase JAK2
Experiment: Inhibition of JAK2 in GM-CSF-stimulated human TF1 cells preincubated for 1 hr prior to challenge
Settings: not given

Compound	IC50
COc1ccccc1-c1ccc2cnc(Nc3ccc(C4CCN(CC(N)=O)CC4)cc3)nn12	41 nM
CN(c1ccccc1-c1ccc2cnc(Nc3ccc(C4CCN(CC(N)=O)CC4)cc3)nn12)S(C)(=O)=O	15 nM
CC(C)(C)NS(=O)(=O)c1cccc(-c2ccc3cnc(Nc4ccc(C5CCN(CC(N)=O)CC5)cc4)nn23)c1	90 nM
COc1ccc(-c2ccc3cnc(Nc4ccc(C5CCN(CC(N)=O)CC5)cc4)nn23)cn1	62 nM
CS(=O)(=O)Nc1cccc(-c2ccc3cnc(Nc4ccc(C5CCN(CC(N)=O)CC5)cc4)nn23)c1	60 nM
CN(c1cccc(-c2ccc3cnc(Nc4ccc(C5CCN(CC(N)=O)CC5)cc4)nn23)c1)S(C)(=O)=O	45 nM
NC(=O)CN1CCC(c2ccc(Nc3ncc4ccc(-c5cccc(CO)c5)n4n3)cc2)CC1	27 nM
CN(c1ccccc1-c1cc(Cl)c2cnc(Nc3ccc(C4CCN(CC(N)=O)CC4)cc3)nn12)S(C)(=O)=O	12 nM

Target: T2, Focal adhesion kinase 1
Experiment: Inhibition of FAK in human 293GT cells after 1 hr by luminescence-based spectrophotometry
Type: cell-based
Settings: not given

Compound	IC50
COc1ccccc1-c1ccc2cnc(Nc3ccc(C4CCN(CC(N)=O)CC4)cc3)nn12	690 nM
CN(c1ccccc1-c1ccc2cnc(Nc3ccc(C4CCN(CC(N)=O)CC4)cc3)nn12)S(C)(=O)=O	610 nM
CC(C)(C)NS(=O)(=O)c1cccc(-c2ccc3cnc(Nc4ccc(C5CCN(CC(N)=O)CC5)cc4)nn23)c1	1340 nM
COc1ccc(-c2ccc3cnc(Nc4ccc(C5CCN(CC(N)=O)CC5)cc4)nn23)cn1	1190 nM
CS(=O)(=O)Nc1cccc(-c2ccc3cnc(Nc4ccc(C5CCN(CC(N)=O)CC5)cc4)nn23)c1	660 nM
CN(c1cccc(-c2ccc3cnc(Nc4ccc(C5CCN(CC(N)=O)CC5)cc4)nn23)c1)S(C)(=O)=O	> 10000 nM
NC(=O)CN1CCC(c2ccc(Nc3ncc4ccc(-c5cccc(CO)c5)n4n3)cc2)CC1	1390 nM
CN(c1ccccc1-c1cc(Cl)c2cnc(Nc3ccc(C4CCN(CC(N)=O)CC4)cc3)nn12)S(C)(=O)=O	420 nM

Tested on: not listed separately
Experiment: Metabolic stability in dog liver microsomes
Type: ADME, Canis lupus familiaris, Microsome
Settings: read-out: Stability

Compound	half-life
CN(c1ccccc1-c1ccc2cnc(Nc3ccc(C4CCN(CC(N)=O)CC4)cc3)nn12)S(C)(=O)=O	11 min
CN(c1ccccc1-c1cc(Cl)c2cnc(Nc3ccc(C4CCN(CC(N)=O)CC4)cc3)nn12)S(C)(=O)=O	17 min

Tested on: not listed separately
Experiment: Tmax in Sprague-Dawley rat at 5 mg/kg, po
Type: ADME, organism-based
Design: dose 5 mg/kg, route oral
Settings: in vivo

Compound	Tmax
CN(c1ccccc1-c1cc(Cl)c2cnc(Nc3ccc(C4CCN(CC(N)=O)CC4)cc3)nn12)S(C)(=O)=O	132 min

Tested on: not listed separately
Experiment: Metabolic stability in mouse liver microsomes
Type: ADME, Microsome
Settings: read-out: Stability

Compound	half-life
CN(c1ccccc1-c1ccc2cnc(Nc3ccc(C4CCN(CC(N)=O)CC4)cc3)nn12)S(C)(=O)=O	15 min
CN(c1ccccc1-c1cc(Cl)c2cnc(Nc3ccc(C4CCN(CC(N)=O)CC4)cc3)nn12)S(C)(=O)=O	26 min

Tested on: not listed separately
Experiment: Cmax in Sprague-Dawley rat at 5 mg/kg, po
Type: ADME, organism-based
Design: dose 5 mg/kg, route oral
Settings: in vivo

Compound	Cmax
CN(c1ccccc1-c1cc(Cl)c2cnc(Nc3ccc(C4CCN(CC(N)=O)CC4)cc3)nn12)S(C)(=O)=O	185 ng/mL

Target: T3, Tyrosine-protein kinase JAK3 (Homo sapiens, UniProt P52333)
T3 sequence (P52333 whole entry): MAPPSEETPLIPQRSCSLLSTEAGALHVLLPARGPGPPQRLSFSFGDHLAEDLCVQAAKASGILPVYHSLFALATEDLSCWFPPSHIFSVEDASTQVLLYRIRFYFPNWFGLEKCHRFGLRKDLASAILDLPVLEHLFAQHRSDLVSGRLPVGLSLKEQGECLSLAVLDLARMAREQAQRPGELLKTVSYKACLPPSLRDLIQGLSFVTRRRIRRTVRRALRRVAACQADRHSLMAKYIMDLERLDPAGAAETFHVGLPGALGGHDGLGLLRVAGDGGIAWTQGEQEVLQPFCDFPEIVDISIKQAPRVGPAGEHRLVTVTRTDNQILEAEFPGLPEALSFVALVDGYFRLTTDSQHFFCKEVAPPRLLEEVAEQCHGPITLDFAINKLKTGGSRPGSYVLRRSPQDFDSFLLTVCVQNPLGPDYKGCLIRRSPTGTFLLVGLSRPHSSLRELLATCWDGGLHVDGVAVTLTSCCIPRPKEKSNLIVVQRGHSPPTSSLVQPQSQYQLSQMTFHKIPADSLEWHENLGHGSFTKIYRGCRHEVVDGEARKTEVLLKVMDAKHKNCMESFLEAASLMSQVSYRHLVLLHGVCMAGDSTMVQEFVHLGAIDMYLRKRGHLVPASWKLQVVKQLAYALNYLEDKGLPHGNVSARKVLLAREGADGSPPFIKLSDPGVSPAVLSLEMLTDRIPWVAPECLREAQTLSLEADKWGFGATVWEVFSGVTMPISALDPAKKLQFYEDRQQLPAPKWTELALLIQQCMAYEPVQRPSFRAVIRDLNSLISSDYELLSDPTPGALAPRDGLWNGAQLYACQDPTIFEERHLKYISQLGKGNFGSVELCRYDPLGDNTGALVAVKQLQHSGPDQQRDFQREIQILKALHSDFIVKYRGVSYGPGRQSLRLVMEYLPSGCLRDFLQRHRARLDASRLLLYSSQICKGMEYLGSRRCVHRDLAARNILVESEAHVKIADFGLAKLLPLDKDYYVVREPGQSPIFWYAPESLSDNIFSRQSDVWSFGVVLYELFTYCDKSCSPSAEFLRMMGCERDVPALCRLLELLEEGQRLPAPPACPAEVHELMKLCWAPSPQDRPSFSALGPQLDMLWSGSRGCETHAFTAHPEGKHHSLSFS
Experiment: Inhibition of JAK3
Settings: not given

Compound	IC50
CN(c1ccccc1-c1cc(Cl)c2cnc(Nc3ccc(C4CCN(CC(N)=O)CC4)cc3)nn12)S(C)(=O)=O	2.9 nM

Tested on: not listed separately
Experiment: Clearance in Sprague-Dawley rat at 1 mg/kg, iv
Type: ADME, organism-based
Design: dose 1 mg/kg, route intravenous
Settings: in vivo

Compound	clearance
CN(c1ccccc1-c1cc(Cl)c2cnc(Nc3ccc(C4CCN(CC(N)=O)CC4)cc3)nn12)S(C)(=O)=O	14 mL/min/kg
